# Assay results taken from paper PMC5064002, “Sintokamide A Is a Novel Antagonist of Androgen Receptor That Uniquely Binds Activation Function-1 in Its Amino-terminal Domain” (The Journal of Biological Chemistry, 2016).
# Experiments:
# [1] = biological target: T1, AR (Homo sapiens, UniProt P10275, T878A); test: AR-responsive luciferase reporters (PSA (6.1 kb), PB, ARR3) in LNCaP cells, SINT1 and EPI-002 alone or combined; assay type: cell-based; details: 1 nM R1881 48 h
# T1 construct: endogenous in cells; host or cells: LNCaP
# T1 sequence (P10275 1-920 T878A): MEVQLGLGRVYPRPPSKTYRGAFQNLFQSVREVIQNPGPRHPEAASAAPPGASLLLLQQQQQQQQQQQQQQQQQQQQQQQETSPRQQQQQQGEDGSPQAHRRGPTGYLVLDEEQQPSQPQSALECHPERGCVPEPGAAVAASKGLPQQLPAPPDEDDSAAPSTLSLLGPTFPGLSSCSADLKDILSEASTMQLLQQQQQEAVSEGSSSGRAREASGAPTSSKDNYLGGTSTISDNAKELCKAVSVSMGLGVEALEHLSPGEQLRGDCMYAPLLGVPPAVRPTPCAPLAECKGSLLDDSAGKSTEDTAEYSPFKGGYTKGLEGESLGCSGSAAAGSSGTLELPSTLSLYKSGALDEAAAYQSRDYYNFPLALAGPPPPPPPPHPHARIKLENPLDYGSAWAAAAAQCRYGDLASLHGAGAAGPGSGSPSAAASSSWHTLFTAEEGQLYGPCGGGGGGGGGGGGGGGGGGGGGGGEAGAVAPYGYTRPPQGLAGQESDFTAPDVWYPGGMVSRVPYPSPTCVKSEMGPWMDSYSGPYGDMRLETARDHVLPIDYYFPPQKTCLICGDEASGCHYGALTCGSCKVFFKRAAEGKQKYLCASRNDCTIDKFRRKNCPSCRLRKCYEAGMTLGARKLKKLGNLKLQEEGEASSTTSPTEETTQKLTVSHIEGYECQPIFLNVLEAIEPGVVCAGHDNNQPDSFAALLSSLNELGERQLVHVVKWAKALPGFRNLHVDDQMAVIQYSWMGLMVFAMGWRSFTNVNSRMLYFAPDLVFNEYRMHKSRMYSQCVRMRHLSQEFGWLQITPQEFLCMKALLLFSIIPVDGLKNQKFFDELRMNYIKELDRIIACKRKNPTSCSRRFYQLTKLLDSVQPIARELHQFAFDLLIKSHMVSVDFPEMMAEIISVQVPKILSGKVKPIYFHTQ
# Experimental: LNCaP cells were transfected with AR-responsive PSA (6.1 kb)-luciferase, PB-luciferase, and ARR3-luciferase reporters. Forty-eight hours later, cells were pretreated for 1 h with SINT1 (0–24 μM), EPI-002 (0–31 μM), or a combination with a constant ratio of 1:1.3 for EPI-002/SINT1 concentration. Cells were then incubated with 1 nM R1881 for 48 h, and a luciferase assay was performed. IC50 values for SINT1 for the three reporters were calculated using GraphPad Prism (version 6.01; GraphPad Software). The combination index of SINT1 and EPI-002 was calculated using CalcuSyn software. Combination indices >1, 1, and <1 indicate antagonism, additive affect, and synergy, respectively.
# [2] = system: LNCaP95 xenografts; test: LNCaP95 xenografts in castrated mice; assay type: in vivo, NOD-SCID mice
# Experimental: At 48 h, total RNA was isolated using a PureLink RNA Mini kit (Invitrogen). For in vivo expression, tumors were harvested 3 days after last treatment, and RNA was extracted using TRIzol. Prior to cDNA generation, 4 μg of RNA were DNase-treated using DNase I (amplification grade; Sigma-Aldrich). DNase-treated RNA was split into two tubes (+RT and −RT), and cDNA was generated using the High Capacity RNA-cDNA kit (Applied Biosystems). Once complete, both reactions were adjusted to 5 ng/μl and stored at −20 °C. Approximately 5 ng of diluted cDNA and gene-specific primers were mixed with Platinum SYBR Green qPCR SuperMix-UDG with ROX (Invitrogen). The transcripts were measured using an ABI PRISM 7900 Sequence Detection System (Invitrogen). For all quantitative RT-PCR experiments, each sample was tested in triplicate, and gene expression levels were normalized to the reference gene RPL13A. Neuron-specific enolase (ENO2) (Gene ID, 2026; pair 1) and synaptophysin (SYP) (Gene ID, 6855; pair 2) human primers were from Sigma Life Science. All other primers were described previously ([4], [9]) and purchased from Integrated DNA Technologies.
# Male NOD-SCID mice bearing subcutaneous LNCaP or LNCaP95 tumors were castrated when the tumor volume reached ∼100 mm^3. Seven days after castration, animals were injected intratumorally with 30 mg/kg of body weight SINT1 or a matching volume of vehicle (DMSO) every 3 days for a total of 15 days. Animal behavior and body weight were observed throughout the study period for signs of toxicity. Tumor volumes were calculated by the formula length × width × height × 0.5236. Tumors were excised 3 days after the last injection and prepared for immunohistochemistry or gene expression.
smiles,measurement,setting,value
"CCC(=O)NC(CC(C)C(Cl)(Cl)Cl)C(=O)N1C(=O)C=C(OC)C1CC(C)C(Cl)Cl (stereo not drawn) [SINT1, Sintokamide A]",IC50,"[1]; IC50, ARR3-Luc",13.2 ± 1.19 µM
same,IC50,"[1]; IC50, PB-Luc",11.6 ± 0.78 µM
same,IC50,"[1]; IC50, PSA (6.1 kb)-Luc",10.7 ± 1.55 µM
same,growth of LNCaP95 tumors,"[2]; castrated mice, 30 mg/kg intratumorally every 3 days",significantly reduce the growth
same,levels of expression of ENO2 and SYP genes (neuroendocrine differentiation),[2]; harvested LNCaP95 xenografts,no significant changes
same,levels of FL-AR and AR-V7 transcripts in harvested LNCaP95 xenografts,[2]; tumors harvested 3 days after last treatment,not significantly altered
